Data published in US4444981A, “10 Oxo-4,5-dihydro-10H-benzo 5,6 cycloheph[1,2-B]pyrryls” (Beecham Group Limited, priority 1979, dated 1984).

How the values were obtained:
[1] = Carrageenin test (anti-inflammatory activity); type: in vivo; conditions: * significantly active
Source text: (§1) The compounds were examined for Anti-Inflammatory Activity in two conventional tests, the Cotton Pellet Granuloma test and the Carrageenin test.

[2] = phenyl quinone writhing test (analgesic activity); type: in vivo
Source text: The compounds were also examined for Analgesic Activity in the conventional phenyl quinone writhing test.

[3] = Cotton Pellet Granuloma test (anti-inflammatory activity); type: in vivo; conditions: * significantly active
Source text: as §1

Structure (SMILES): CC(O)CCc1cc2c(n1C)C(=O)c1ccccc1CC2 (centres unmarked) [Example 5, 4-(4,5-Dihydro-10H-1-methyl-10-oxo-benzo[5,6]cyclohepta[1,2-b]-2-pyrryl)butan-2-ol]
- Carrageenin % Inhibition ([1]; 45 mg/kg): 25%

Structure (SMILES): Cn1c(CC(=O)O)cc2c1C(=O)c1ccccc1CC2 [Example 2, 4,5-Dihydro-10H-1-methyl-10-oxobenzo[5,6]-cyclohepta[1,2-b]pyrrole-2-aceticacid]
- Carrageenin % Inhibition ([1]; 15 mg/kg): 25%
- Carrageenin % Inhibition ([1]; 45 mg/kg): 30%
- ED50 [2]: 2.4 mg/kg
- Cotton Pellet % Inhibition ([3]; 10 mg/kg): 28%

Structure (SMILES): Cc1ccc2c(c1)CCc1cc(CC(=O)O)n(C)c1C2=O [Example 1, 4,5-Dihydro-1,7-dimethyl-10H-10-oxo-benzo[5,6]cyclohepta[1,2-b]pyrrole-2-acetic acid]
- Carrageenin % Inhibition ([1]; 5 mg/kg): 21%
- Carrageenin % Inhibition ([1]; 25 mg/kg): 44%
- ED50 [2]: 5.1 mg/kg
- TD50 (in vivo): 95 mg/kg
- Cotton Pellet % Inhibition ([3]; 25 mg/kg): 34%

Structure (SMILES): Cn1c(CC(=O)O)cc2c1C(=O)c1ccc(F)cc1CC2 [Example 8, 4,5-Dihydro-7-fluoro-10H-1-methyl-10-oxobenzo[5,6]cyclohepta[1,2-b]pyrrole-2-acetic acid]
- Cotton Pellet % Inhibition ([3]; 10 mg/kg): 31%

Structure (SMILES): CC(=O)OC(C)CCc1cc2c(n1C)C(=O)c1ccccc1CC2 (centres unmarked) [Example 6, 2-Acetoxy-4-(4,5-dihydro-10H-1-methyl-10-oxo-benzo[5,6]cyclohept[1,2-b]-2-pyrryl)butane]
- Carrageenin % Inhibition ([1]; 15 mg/kg): 17%
- Carrageenin % Inhibition ([1]; 45 mg/kg): 19%

Structure (SMILES): CC(=O)CCc1cc2c(n1C)C(=O)c1ccccc1CC2 [Example 4, 4-(4,5-Dihydro-10H-1-methyl-10-oxo-benzo[5,6]cyclohepta[1,2-b]-2-pyrryl)butan-2-one]
- Carrageenin % Inhibition ([1]; 15 mg/kg): 17%
- Carrageenin % Inhibition ([1]; 45 mg/kg): 20%

Structure (SMILES): Cn1c(CC(=O)O)cc2c1C(=O)c1ccc(Cl)cc1CC2 [Example 7, 7-Chloro-4,5-dihydro-10H-1-methyl-10-oxobenzo[5,6]cyclohepta[1,2-b]pyrrole-2-acetic acid]
- Carrageenin % Inhibition ([1]; 25 mg/kg): 25%
- Cotton Pellet % Inhibition ([3]; 25 mg/kg): 49%
